Assay results from US10196412B2, “Probe for imaging PARP-1 activity” (The Board of Trustees of the Leland Stanford Junior …, priority 2014, dated 2019).
One block for each compound: values may come before it.

How the values were obtained:
[1] = biological target: T1, PARP-1 (Homo sapiens, UniProt P09874); assay: PET imaging of tracer retention in animal models of tumor radiation therapy; type: in vivo, mice; parameters: endogenous in cells; host or cells: HeLa xenografts and orthotopic MDA-MB-231 tumours in mice
T1 sequence (P09874 whole entry): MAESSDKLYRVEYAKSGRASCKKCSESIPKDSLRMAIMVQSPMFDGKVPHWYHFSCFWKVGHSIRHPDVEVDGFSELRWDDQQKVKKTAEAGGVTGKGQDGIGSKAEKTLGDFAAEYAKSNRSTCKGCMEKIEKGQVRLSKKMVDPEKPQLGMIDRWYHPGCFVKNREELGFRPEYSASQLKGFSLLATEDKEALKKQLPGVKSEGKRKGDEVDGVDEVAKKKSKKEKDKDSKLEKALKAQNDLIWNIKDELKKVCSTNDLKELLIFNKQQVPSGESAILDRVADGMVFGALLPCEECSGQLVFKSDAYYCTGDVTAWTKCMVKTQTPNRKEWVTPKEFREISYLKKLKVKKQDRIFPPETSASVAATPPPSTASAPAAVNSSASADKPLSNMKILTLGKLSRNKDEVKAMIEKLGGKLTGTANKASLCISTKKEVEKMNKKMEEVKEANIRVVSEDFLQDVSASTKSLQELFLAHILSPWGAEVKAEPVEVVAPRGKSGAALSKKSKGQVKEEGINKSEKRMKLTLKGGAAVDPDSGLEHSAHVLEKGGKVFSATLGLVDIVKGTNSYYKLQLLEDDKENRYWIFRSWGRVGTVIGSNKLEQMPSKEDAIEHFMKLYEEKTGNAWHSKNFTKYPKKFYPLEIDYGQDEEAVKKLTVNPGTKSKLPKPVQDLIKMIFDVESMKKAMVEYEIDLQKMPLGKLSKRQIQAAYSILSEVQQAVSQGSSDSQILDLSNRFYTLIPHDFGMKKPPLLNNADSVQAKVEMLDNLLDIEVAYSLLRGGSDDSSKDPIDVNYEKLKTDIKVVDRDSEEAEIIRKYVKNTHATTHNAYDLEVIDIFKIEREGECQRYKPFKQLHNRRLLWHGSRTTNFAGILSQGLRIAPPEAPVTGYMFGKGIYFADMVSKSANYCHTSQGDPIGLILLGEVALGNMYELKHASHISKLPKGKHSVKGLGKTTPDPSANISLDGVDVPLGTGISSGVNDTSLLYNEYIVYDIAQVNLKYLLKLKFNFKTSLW
Excerpt: FIG. 8 illustrates a schematic showing animal studies performed with ^18F-PEG2-NAD (Substrate-based PARP-1 Activity Reporter: ^18F-SuPAR)
FIGS. 9A-9C illustrate the validation of ^18F-SuPAR in mice bearing HeLa tumor xenografts following radiation therapy.
FIGS. 10A-10C illustrate the validation of ^18F-SuPAR in mice bearing orthotopic MDA-MB-231 tumors following radiation therapy.
FIGS. 11A-11D illustrate the validation of PARP-1 as target of ^18F-SuPAR following inhibition by BMN673.
One advantageous tracer probe of the disclosure is an efficient analog of NAD that has been labelled by ^18F-radionuclide for PET imaging. It is contemplated, however, that other radionuclides detectable by PET imaging technology can be used in place of ^18F. Previously unknown relationships between NAD modification and PARP-1 substrate potential have been elucidated to synthesize the tracer, 6N-(triazo-PEG2-^18F)-NAD. This tracer was validated for PARP-1 activity in vivo in two animal models of tumor radiation therapy. […] Results were confirmed ex vivo by autoradiography and immunofluorescence analysis of tumor sections.

[2] = biological target: T1, PARP-1; assay: gel-shift assay for in vitro assessment of PARP-1 activity; type: biochemical
[3] = biological target: PARG (Homo sapiens, UniProt Q86W56); assay: PARG-mediated degradation of PAR formed from probe (gel); type: biochemical; details: FIG. 4D
Sequence of PARG (Q86W56 whole entry, species assumed): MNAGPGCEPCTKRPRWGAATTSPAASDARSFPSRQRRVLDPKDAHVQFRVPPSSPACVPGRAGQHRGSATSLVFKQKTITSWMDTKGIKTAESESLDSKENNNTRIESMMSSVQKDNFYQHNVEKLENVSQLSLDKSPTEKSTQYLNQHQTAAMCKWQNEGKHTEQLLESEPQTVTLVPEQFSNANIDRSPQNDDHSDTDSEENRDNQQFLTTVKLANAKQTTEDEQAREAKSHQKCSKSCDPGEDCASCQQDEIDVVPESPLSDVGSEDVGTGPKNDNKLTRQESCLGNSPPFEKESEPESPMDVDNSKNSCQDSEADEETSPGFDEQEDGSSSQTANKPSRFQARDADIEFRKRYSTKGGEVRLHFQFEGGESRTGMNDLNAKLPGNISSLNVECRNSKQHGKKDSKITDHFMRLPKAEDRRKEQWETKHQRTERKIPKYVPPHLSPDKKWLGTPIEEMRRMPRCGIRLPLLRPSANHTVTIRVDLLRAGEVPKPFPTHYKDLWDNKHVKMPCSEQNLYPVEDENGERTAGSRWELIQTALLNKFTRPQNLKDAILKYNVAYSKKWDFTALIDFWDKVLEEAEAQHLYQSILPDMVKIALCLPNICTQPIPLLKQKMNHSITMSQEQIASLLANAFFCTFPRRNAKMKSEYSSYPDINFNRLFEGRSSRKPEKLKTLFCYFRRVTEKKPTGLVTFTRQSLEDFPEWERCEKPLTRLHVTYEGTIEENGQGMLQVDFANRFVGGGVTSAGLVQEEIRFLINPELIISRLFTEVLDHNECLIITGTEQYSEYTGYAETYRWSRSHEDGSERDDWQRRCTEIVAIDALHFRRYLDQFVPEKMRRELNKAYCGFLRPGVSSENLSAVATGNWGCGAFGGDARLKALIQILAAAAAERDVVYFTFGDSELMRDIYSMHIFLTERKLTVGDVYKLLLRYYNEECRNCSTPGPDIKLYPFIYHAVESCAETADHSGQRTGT
Excerpt: FIG. 4A illustrates novel substrate-based PARP-1 probes assessed for in vitro PARP-1 activity and PARG-mediated degradation of PAR.

[4] = biological target: T2, ARH3 (Homo sapiens, UniProt Q9NX46); assay: ARH3-mediated degradation of PAR formed from probe (gel); type: biochemical; details: FIG. 4D
T2 sequence (Q9NX46 1-363): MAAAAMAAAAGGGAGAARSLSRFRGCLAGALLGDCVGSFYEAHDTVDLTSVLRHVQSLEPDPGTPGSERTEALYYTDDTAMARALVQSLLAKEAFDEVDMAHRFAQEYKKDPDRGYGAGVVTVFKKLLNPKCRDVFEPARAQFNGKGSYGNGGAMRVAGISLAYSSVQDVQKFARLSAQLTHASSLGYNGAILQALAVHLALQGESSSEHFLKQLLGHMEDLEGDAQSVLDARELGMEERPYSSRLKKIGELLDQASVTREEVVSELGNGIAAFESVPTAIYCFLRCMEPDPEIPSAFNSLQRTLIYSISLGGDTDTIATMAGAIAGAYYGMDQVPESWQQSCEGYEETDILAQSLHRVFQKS

probe target verification using a highly potent PARP-1 inhibitor ([1]; in vivo, confirmed ex vivo by autoradiography and immunofluorescence): verified as PARP-1
time-dependence of maximal tracer uptake ([1]; two animal models of tumor radiation therapy): tumor-type specific
Structure (SMILES): NC(=O)c1ccc[n+](C2OC(COP(=O)(O)OP(=O)(O)OCC3OC(n4cnc5c(NCc6cn(COCC[18F])nn6)ncnc54)C(O)C3O)C(O)C2O)c1 (stereo not shown) [6N-(triazo-PEG2-^18F)-NAD]
tracer retention with increasing doses of radiation ([1]; 0, 5, 10 Gy, two animal models of tumor radiation therapy): dose-dependence of tracer retention was observed

Structure (SMILES): C#CCNc1ncnc2c1ncn2[C@@H]1O[C@H](COP(=O)(O)OP(=O)(O)OC[C@H]2O[C@@H]([n+]3cccc(C(N)=O)c3)[C@H](O)[C@@H]2O)[C@@H](O)[C@H]1O [LCD11, Nicotinamide 6-N-propargyladenine dinucleotide]
incorporation into high molecular weight PAR ([2]; low percentage ratios of alkyne probe to NAD, FIG. 6B): incorporation into high molecular weight PAR occurs

degradation by PARG [3]: resistance to degradation
degradation by ARH3 [4]: resistance to degradation
Structure (SMILES): NC(=O)c1ccc[n+]([C@@H]2O[C@H](COP(=O)(O)OP(=O)(O)OC[C@H]3O[C@@H](n4cnc5c(NCc6cn(CCOCCOCCF)nn6)ncnc54)[C@H](O)[C@@H]3O)[C@@H](O)[C@H]2O)c1 [LCD67]

inhibition of PARP-1 ([2]; gel, FIG. 2A): inhibits PARP-1
Structure (SMILES): Nc1cccc2c(=O)[nH][nH]c(=O)c12 [luminol, reference compound]
